Measured values published in PMC11502128 (Journal of Lipids, 2024).
Read-outs that look alike come from different tables or passages of the source.

Assays:
[1] = target: T1, porcine PNLIP (pancreatic lipase) (Sus scrofa, UniProt P00591); experiment: PNLIP inhibition and enzyme kinetics with p-nitrophenyl palmitate; assay type: biochemical; details: for Pancreatic lipase Mode of inhibition: Lineweaver–Burk plot
T1 sequence (P00591 1-450): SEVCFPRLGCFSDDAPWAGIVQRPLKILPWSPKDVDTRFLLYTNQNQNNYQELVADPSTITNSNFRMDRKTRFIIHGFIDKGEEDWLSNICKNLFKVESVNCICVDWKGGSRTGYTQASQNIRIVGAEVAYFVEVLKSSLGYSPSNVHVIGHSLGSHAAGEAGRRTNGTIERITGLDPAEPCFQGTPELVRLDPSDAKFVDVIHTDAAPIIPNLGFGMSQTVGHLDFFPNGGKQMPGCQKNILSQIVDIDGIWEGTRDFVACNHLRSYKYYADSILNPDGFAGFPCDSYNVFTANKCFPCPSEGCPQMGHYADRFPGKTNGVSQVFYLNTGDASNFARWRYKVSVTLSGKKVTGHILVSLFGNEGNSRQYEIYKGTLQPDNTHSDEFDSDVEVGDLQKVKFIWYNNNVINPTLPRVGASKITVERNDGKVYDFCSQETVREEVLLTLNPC
Protocol: The PNLIP inhibitory activity of the compounds was tested using p-nitrophenyl palmitate (p-NPP) as an artificial substrate. […] The reaction was initiated by adding 10 mM p-NPP at 37°C for 20 min. Then, the enzyme activity was determined calorimetrically by measuring the release of p-nitrophenol measured at 405 nm using a SpectraMax paradigm microplate reader (Molecular Devices Inc, San Jose, California). The IC50 values were determined using nonlinear regression from the absorbance versus concentration curves.
The modes of enzyme inhibition were determined using the reaction protocol described above. While all the other parameters remained unchanged, the enzyme activity was measured at increasing substrate concentrations (2–10 mM) in the presence and absence of the test compound (inhibitor). Double reciprocal (Lineweaver–Burk) plots were generated and used to determine the inhibition types Km and Vmax. The inhibitory constants (Ki) of the test compounds were also calculated.

HepG2 cells [2] = experiment: Cell viability assessment (crystal violet), HepG2; assay type: cell-based, human; details: triterpenoids at 25 and 100 μM; lovastatin 50 μM
Protocol: The 3T3-L1 and HepG2 cells (at 70%–80% confluence) were seeded at concentrations of 0.2 × 10^4 per 100 μL and 5.0 × 10^4 per 100 μL, respectively, in a 96-well plate. […] Control cells were exposed to either 0.01% methanol (vehicle control) or sterile phosphate buffered saline (PBS) pH 7.4. Following the exposure, the cells were fixed with 20% formalin (final concentration 2% [v/v]) at 37°C for 30 min. The solution was discarded, and the plate was blotted dry. The cells were stained with the addition of 100 μL f CV (0.1% in 200 mM formic acid) to each well. After 30 min at room temperature, the dye solution was removed, and the plate was washed well with tap water and dried. The dye was then extracted from the stained cells with 100 μL of a 10% (v/v) acetic acid solution. The absorbance was measured at 630 nm, and the results were expressed as percentage cell viability relative to the control (cells treated with PBS).

[3] = tested on: differentiated 3T3-L1 adipocytes; experiment: Intracellular lipid accumulation in differentiated 3T3-L1 adipocytes (ORO staining); assay type: cell-based, Mouse; details: 100 μM, 3 days, differentiated 3T3-L1, relative to control
Protocol: (§1) The differentiation of 3T3-L1 cells was performed as described by Ibrahim et al. with slight modifications. The preadipocyte cells were seeded at a concentration of 0.2 × 10^4 per 100 μL into each of the wells of a 96-well plate and were grown at 37°C with 5% CO2 for 3 days, until confluent. On Day 4, differentiation was induced by replacing the medium with 100 μL Differentiation Medium 1 (DM1, DMEM supplemented with final concentrations of 10 μg/mL insulin, 0.5 mM isobutyl methylxanthine, 1 μM dexamethasone, and 2 μM rosiglitazone) for further 3 days. On Day 8, DM1 was replaced with DM2 (DMEM with only 10 μg/mL insulin) for 3 days. Finally, DM2 was replaced with only DMEM, and the cells were exposed to the different concentrations (1–100 μM) of the test compounds for a further 3 days. Control cells were exposed to either the vehicle control or sterile PBS.
The ORO staining technique was used to detect lipid droplets in both differentiated adipocytes and OA-exposed hepatocytes. […] The ORO dye was then extracted with 60% isopropanol, and the absorbance was measured at 405 nm. For the 3T3-L1 cells, the percentage of lipid accumulation was relative to the control cells (PBS-treated) cells, with 100% lipid formation, while for HepG2, the results were expressed as the percentage of lipid accumulation relative to cells exposed to OA.

[4] = tested on: differentiated 3T3-L1 adipocytes; experiment: Neutral lipid accumulation in differentiated 3T3-L1 adipocytes (NR staining); assay type: cell-based, Mouse; details: 100 μM, 3 days, differentiated 3T3-L1, relative to control
Protocol: as §1, with “Finally, DM2 was replaced with only DMEM, and the cells were exposed to the different concentrations (1–100 μM) of the test compounds for a further 3 days. Control cells were exposed to either the vehicle control or sterile PBS.” left out
With NR staining, the accumulation of neutral lipids was assessed in the differentiated 3T3-L1 cells and OA-induced lipid accumulation in HepG2 cells following treatment with the triterpenoids. […] Background fluorescence was measured at an excitation and an emission wavelength of 485 nm and 590 nm (Ex4850 and Em590), respectively. […] The dye was extracted from the stained cells with 100 μL PBS, and the fluorescence was measured again at Ex450 and Em590. The difference in fluorescence between the extracted dye and background fluorescence was calculated. The percentage of intracellular lipid accumulation relative to the untreated control cells was calculated.

HepG2 cells [5] = experiment: Oleic acid-induced hepatic lipid accumulation in HepG2 cells (ORO staining); assay type: cell-based, human; details: 100 μM, 48 h, HepG2 exposed to 1 mM oleic acid
Protocol: (§2) The HepG2 cells were seeded in a 96-well plate at a cell density of 5 × 10^4 and left to attach overnight. The cells were incubated at 37°C, 5% CO2 for 48 h, and 1 mM OA (final concentration) to stimulate lipid accumulation. […] Control cells were exposed to either the vehicle control or sterile PBS.
The ORO staining technique was used to detect lipid droplets in both differentiated adipocytes and OA-exposed hepatocytes. The cells were fixed with 2% (v/v) formaldehyde for 30 min at 37°C. The formaldehyde was then discarded, and the plates were air-dried. The fixed cells were stained with ORO staining solution (three parts of 0.5% ORO (w/v) in 60% isopropyl alcohol and two parts of water) for 1 h. After staining, the excess ORO was discarded, and the plates were rinsed with water and dried. Microscopic images were acquired with an Olympus microscope (Olympus, Tokyo, Japan). The ORO dye was then extracted with 60% isopropanol, and the absorbance was measured at 405 nm. For the 3T3-L1 cells, the percentage of lipid accumulation was relative to the control cells (PBS-treated) cells, with 100% lipid formation, while for HepG2, the results were expressed as the percentage of lipid accumulation relative to cells exposed to OA.

HepG2 cells [6] = experiment: Oleic acid-induced neutral lipid accumulation in HepG2 cells (NR staining); assay type: cell-based, human; details: 100 μM, 48 h, HepG2 exposed to 1 mM oleic acid
Protocol: as §2
With NR staining, the accumulation of neutral lipids was assessed in the differentiated 3T3-L1 cells and OA-induced lipid accumulation in HepG2 cells following treatment with the triterpenoids. The cells were washed with PBS and fixed with 4% formaldehyde for 1 h, and then the cells were stained with the NR staining solution (100 μM in 100% DMSO) in the dark for 3 h. Background fluorescence was measured at an excitation and an emission wavelength of 485 nm and 590 nm (Ex4850 and Em590), respectively. The dye solution was then discarded, the wells were then rinsed with PBS, and the plate was blotted dry. The dye was extracted from the stained cells with 100 μL PBS, and the fluorescence was measured again at Ex450 and Em590. The difference in fluorescence between the extracted dye and background fluorescence was calculated. The percentage of intracellular lipid accumulation relative to the untreated control cells was calculated.

PPARγ gene = experiment: qRT-PCR PPARγ mRNA expression in differentiated 3T3-L1 adipocytes; assay type: cell-based, Mouse; details: 100 μM, 3 days
Protocol: (§3) The mRNA expression of selected lipogenic and lipolytic genes was quantified using qRT–PCR following the established protocol as described by Ndlovu et al.. […] The RNA was extracted with the […] RNA extraction kit. The RNA was then converted into cDNA using an iScript cDNA Synthesis Kit from […] following the manufacturer's protocols. qRT–PCR analysis was performed using Bio-Rad CFX Maestro software. All mRNA expression levels were standardized to ensure consistency using glyceraldehyde 3-phosphate dehydrogenase (GAPDH) as a reference gene. The primers used were designed using the BLAST NCBI online server (https://www.ncbi.nlm.nih.gov/tools/primer-blast/). Data was expressed as fold change relative to the untreated control.

C/EBPα gene = experiment: qRT-PCR C/EBPα mRNA expression in differentiated 3T3-L1 adipocytes; assay type: cell-based, Mouse; details: 100 μM, 3 days
Protocol: as §3

HSL gene = experiment: qRT-PCR HSL mRNA expression in differentiated 3T3-L1 adipocytes; assay type: cell-based, Mouse; details: 100 μM, 3 days
Protocol: as §3

AMPK gene = experiment: qRT-PCR AMPK mRNA expression in differentiated 3T3-L1 adipocytes; assay type: cell-based, Mouse; details: 100 μM, 3 days, not significant versus control
Protocol: as §3

[7] = tested on: differentiated 3T3-L1 cells; experiment: Glycerol release from isoproterenol-stimulated differentiated adipocytes (lipolysis); assay type: cell-based, Mouse; details: 100 μM, 3 days, then 100 nM isoproterenol 3 h
Protocol: Subsequently, the cells were exposed to isoproterenol (final concentration of 100 nM) for 3 h to stimulate lipolysis. The glycerol levels released into the medium were used as a measure of lipolysis evaluated using a commercial lipolysis colorimetric assay kit (MAK211) according to the manufacturer's instructions. Cell viability of the lipolysis-induced adipocytes was determined with CV staining.

Row | SMILES | IC50 [1] [µM] | Ki [1] [µM] | Pancreatic lipase Mode of inhibition [1] | cytotoxicity in the HepG2 model (abstract) (HepG2 cells [2]) | decrease in lipid accumulation (ORO staining) [3] [%] | reduction in neutral lipid accumulation (NR staining) [4] [%] | reduction of OA-induced lipid accumulation (ORO staining) (HepG2 cells [5]) [%] | reduction in neutral lipid accumulation (NR staining) (HepG2 cells [6]) [%] | reduction of PPARγ gene expression (PPARγ gene) [%] | reduction of C/EBPα gene expression (C/EBPα gene) [%] | reduction of HSL gene expression (HSL gene) [%] | increase in the expression of the AMPK gene (AMPK gene) [%] | decrease in glycerol release [7] [%] | Ki ([1]; Lineweaver–Burk, substrate 2–10 mM, mean ± SEM (n = 3), read-out: Pancreatic lipase Ki) [µM] | IC50 ([1]; porcine PNLIP, p-NPP substrate, pH 7.4, 37°C, mean ± SEM (n = 3), read-out: Pancreatic lipase IC50) [µM]
1 | CC(C)=CCCC(C(=O)O)C1CCC2(C)C3CCC4C(C)(CCC(O)C4(C)C)C3=CCC12C (stereo not drawn) [RA-5, 3β-hydroxylanosta-9,24-dien-21-oic acid] | 27.6 ± 8.51 | 28.7 ± 8.84 | mixed type of inhibition | lacked cytotoxicity | 20.67 | 10.37 | 23.47 | 39 | 77.40 | 49.72 | 66.54 | 28.05 | 34.72 |  | 
2 | CCCCCCCCCCC[C@@H](C[C@@H]1OC(=O)[C@H]1CCCCCC)OC(=O)[C@H](CC(C)C)NC=O [Orlistat, orlistat, reference compound] |  |  | Uncompetitive |  |  |  |  |  |  |  |  |  |  |  | 
3 | C/C(=C/CC[C@H](C(=O)O)C1CC[C@]2(C)C3=CCC4C(C)(C)[C@H](O)CC[C@]4(C)C3CC[C@@]12C)CO (stereo partly drawn) [ARM-2, 3α,26-dihydroxytirucalla-7,24-dien-21-oic acid] |  |  | Noncompetitive | lacked cytotoxicity | 22.21 | 19.27 | 31.56 | 40 | 59.30 | 55.65 | 60.38 | 39.10 | 36.47 | 52.9 ± 7.19 | 35.8 ± 12.4
